Results taken from US9873889B2, “Increasing leaf longevity and disease resistance by altering salicylic acid catabolism” (priority 2013, dated 2018).

Legend:
recombinant S3H = molecular target: T1, recombinant S3H (Arabidopsis thaliana, UniProt Q9ZSA8); assay: Enzyme assay of recombinant S3H (substrate specificity and kinetics); assay type: biochemical; details: for S3H enzyme activity on substrate (in words): 30-min reaction under the same conditions as those for SA
T1 construct: His (N); made in house; host or cells: E. coli BL21 (DE3, pLys3)
T1 sequence (Q9ZSA8 1-349): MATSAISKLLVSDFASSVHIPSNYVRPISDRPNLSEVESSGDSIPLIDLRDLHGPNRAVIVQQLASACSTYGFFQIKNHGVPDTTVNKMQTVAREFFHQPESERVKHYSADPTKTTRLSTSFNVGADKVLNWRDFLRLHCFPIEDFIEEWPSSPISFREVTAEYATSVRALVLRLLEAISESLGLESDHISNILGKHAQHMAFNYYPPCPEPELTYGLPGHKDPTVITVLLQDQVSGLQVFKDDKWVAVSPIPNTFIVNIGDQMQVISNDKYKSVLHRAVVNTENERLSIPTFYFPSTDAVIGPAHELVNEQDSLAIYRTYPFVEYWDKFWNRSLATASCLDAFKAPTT
Experimental: (§1) The construct pET28a-S3H was introduced into E. coli BL21 (DE3, pLys3, Invitrogen, Carlsbad, Calif.). The bacterial cells containing pET28a-S3H were induced with 0.5 mM isopropyl β-D-1-thiogalactoside (IPTG) for 24 hr at 18° C., and were collected and disrupted by sonication in lysis buffer (20 mM Tris-Cl, pH7.5, 2 mM EDTA, 2 mM β-mercaptoethanol, 1 mM PMSF, 10 mM Imidazole, 0.1% Triton X-100, 20 mM sodium ascorbate). All subsequent purification procedures involving His-Bind® resin were performed at 4° C. according to the manufacturer (Novagen, Madison, Wis.). The recombinant protein concentration was quantified using Quick Start Bradford Dye Reagent (Biorad, Hercules, Calif.). 2 mM DTT was added to the enzyme solution and the protein was immediately kept in a −80° C. refrigerator.
(§2) The enzyme assay was performed using a method modified from Satio et al. (Saito et al., “Direct Evidence for Anthocyanidin Synthase as a 2-Oxoglutarate-Dependent Oxygenase: Molecular Cloning and Functional Expression of cDNA From a Red Forma of Perilla frutescens,” Plant J. 17(2):181-189 (1999), which is hereby incorporated by reference in its entirety). The reaction mixture (100 μl) contained 5 mM DTT, 4 mM sodium ascorbate, 1 mM 2-oxoglutaric acid, 0.4 mM FeSO4, 0.1 mg/ml catalase, 50 mM Tris-Cl pH8.0 or other buffer, 8-15 μg recombinant protein, various concentrations of SA. To determine the optimal temperature and pH for enzyme activity of S3H, the protein was incubated with 200 μM SA substrate in Tris-Cl buffer (pH8.0) at different temperatures for 15 min; or 500 μM SA substrate, in 50 mM Sodium citrate, Tris-Cl and Glycine buffers with different pH at 40° C. for 15 min. For enzyme kinetics analysis, various substrate SA concentrations ranging from 10 to 500 μM were used and the incubation proceeded for 6 min with pH 6.0. […] Mass spectra were recorded over 15 to 800 m/z in the negative mode. Km and Vmax were determined by Graphpad Prism 5 software using non-linear regression for Michaelis-Menten equation.

S3H [1] = assay: SA treatment of plants, RNA gel blot analysis of S3H expression; assay type: in vivo, Arabidopsis thaliana; details: 5 mM SA spray, Col-0 plants 25 DAG, 6 hours
Experimental: All chemicals used in this research were purchased from Sigma-Aldrich (St. Louis, Mo.), unless otherwise stated. Col-0 plants (25 DAG) were sprayed with 5 mM SA in 0.005% Silwet L-77 (Lehele Seeds, Tex.) or only 0.005% Silwet L-77 (mock). All rosette leaves of individual plants for RNA extraction were collected at different time points after the spray.
Total RNA extraction and RNA blot analysis were performed as described previously (He & Gan, “A Gene Encoding an Acyl Hydrolase Is Involved in Leaf Senescence in Arabidopsis,” Plant Cell 14(4):805-815 (2002), which is hereby incorporated by reference in its entirety). The DNA templates for probe labeling were amplified by the following different pairs of primers: S3H, G2956 and G2957; AtNAP, G3149 and G3150; SAG12, G10 and G246; SAG13, G9 and G16; EDS1, EDS1F and EDS1R; PAD4, PAD4F and PAD4R; PR1, PR1F and PR1R (FIG. 1E). The ethidium bromide staining of the RNA gels was used to show approximate amount of total RNA loading on each lane.

S3H [2] = details: 10 μM, Col-0 (Seedling), 3 hrs; cited from earlier work
[3] = substrate: O=C(O)c1ccccc1O; assay: Enzyme assay of recombinant S3H (substrate specificity and kinetics); assay type: biochemical, Arabidopsis thaliana; details: other: pH 6.0 and 40° C. for 6 min, mean ± SE of four replicates
Experimental: as §1, §2

## Nc1ccccc1C(=O)O [Anthranilic acid]
Recombinant S3H
  S3H enzyme activity on substrate (in words): did not have detectable activity

## O=C(O)c1ccccc1O [Salicylic acid]
Recombinant S3H; pH 6.0 and 40° C. for 30 min, mean ± SE of three replicates, n.d. = not detectable
  Specific activity: 78.06 ± 9.75 nmol/mg/min
S3H [1]
  S3H expression after SA treatment (RNA gel blot): readily inducible
S3H [2]
  Induction folds of S3H: 36.72

## O=C(O)c1ccccc1 [Benzoic acid]
Recombinant S3H
  S3H enzyme activity on substrate (in words): did not have detectable activity

B1: recombinant S3H (Arabidopsis thaliana) (protein)
chain: T1 sequence (Q9ZSA8 1-349)
notes: His (N); made in house; host or cells: E. coli BL21 (DE3, pLys3)
[3]
  Km: 58.29 µM
  Vmax: 0.498 µmol/min/mg
  kcat/Km: 6090 M⁻¹ s⁻¹
